Assay results from US20230210154A1, “SWEET PROTEIN MUTANTS FROM TRUFFLE” (MYCOTECHNOLOGY, INC., priority 2021, published 2023).
Like-named read-outs stand apart in the source and are kept apart here. Residues, ends and D or L forms follow the SMILES beside them.

Columns and labels:
sweet taste [1] = experiment: Concentration-response functions for sweet taste (Opertech Bio); assay type: in vivo; details: for Relative to Sucrose (mM): equivalency to sucrose on a molar basis; for Relative to Sucrose (mg/ml): equivalency to sucrose on a weight basis; for EC50: half-maximal sweet taste response
Method: Opertech Bio (Philadelphia, Pa.) performed a quantitative characterization of the concentration-dependence of the taste properties of the purified his-tagged mycodulcein (SEQ ID NO:21) obtained from E. coli as described in Example 5 and purified as described in Example 4. The sweet-taste potency and relative efficacy of mycodulcein was compared with sucrose and with other sweeteners thaumatin, rebaudioside A, and aspartame. Control standards were solutions of 200 mM sucrose, 100 mM NaCl, 0.5 mM quinine, and 10 mM citric acid. […] Each data point in the curves for mycodulcein, aspartame, thaumatin, rebaudioside A was calculated as the average across 32 replicates and averaged across 16 replicates for the sucrose curve; error bars are SEM. Points for water and sucrose controls were similarly calculated as the average across 128 and 64 replicates, respectively. Curves were fit by non-linear regression.
The concentrations that elicit half-maximal sweet taste response (EC50s, or potencies) were derived from the nonlinear regression. […] Also provided are the equivalencies to sucrose on a molar basis and on a weight basis.

sweet taste [2] = experiment: CATA time intensity of the sweet sensation, trained panel; assay type: in vivo, human
Method: Evaluation of thaumatin, sucrose, and SEQ ID NO:21 was carried out using a CATA (click all that apply) time intensity of the sweet sensation of named analytes in water at 0.045 mg/ml for proteins and 10% sucrose. Methodology: Time Intensity Technique; Data collection software: EyeQuestion, responses recorded every 2.57 seconds; Scaling Method: a 15-point sweet scale, e.g. score 5=5% sucrose, score 10=10% sucrose; Evaluation Protocol: small volume sip, tilt and spit test. There were 3-6 panelists and 2 replicates. All samples were blinded and presented with randomized 3-digit codes. Training Strategies: An intense training on sweet scale over 6 weeks on 15-point sweet scale to confidently assign sweet values. Due to unique sweet behavioral patterns, it is necessary to train time intensity principles over 3 weeks. Samples were tasted with a stopwatch to note times and help reach a consensus. # of Panelists: 3-6, # of replications: 2. All samples were blinded and presented with randomized 3-digit codes. Statistical analysis: due to the small # of panelists, a statistical analysis cannot be performed.

[3] = non-linear regression, read-out: EC50 (molar units)

EC50 (sweet taste [1]; [3]) | EC50 (sweet taste [1]; read-out: EC50) | Molecule | Relative to Sucrose (mM) (sweet taste [1]) | Relative to Sucrose (mg/ml) (sweet taste [1]) | time to approach threshold sweetness (Intensity <1) (sweet taste [2]; 10% sucrose in water) | maximum intensity (Imax) higher than sucrose (sweet taste [2]; 15 point scale, proteins 0.045 mg/ml in water vs 10% sucrose)
0.182 mM | 53.2 µg/mL | COC(=O)[C@H](Cc1ccccc1)NC(=O)[C@@H](N)CC(=O)O [aspartame] (H-Asp-Phe-OMe) | 198 | 231 |  | 
36 mM | 12300 µg/mL | OC[C@H]1O[C@@](CO)(O[C@H]2O[C@H](CO)[C@@H](O)[C@H](O)[C@H]2O)[C@@H](O)[C@@H]1O [sucrose] | 1 | 1 | 162 s | 
 |  | thaumatin |  |  |  | approximately 1 point
